The compounds below were run against wild-type human cardiac sodium channel, hNav1.5 (late sodium current) in HEK293 cells (Homo sapiens, UniProt Q14524) (assay: Late INa screening assay (automated whole-cell patch clamp, PatchXpress)). Settings: HEK293, compound at 1 μM; late INa generated with 10 μM Tefluthrin (or 50 nM ATX II); HEK293 hNav1.5; read-out: Late INa 1 μM (percent block of late INa).
Type: cell-based
Description: The late sodium current (Late INa) and peak sodium current (Peak INa) assays are performed on an automated electrophysiology platform, PatchXpress 7000A (MDS Analytical Technologies, Sunnyvale, Calif.), which uses the whole cell patch clamp technique to measure currents through the cell membrane of up to 16 cells at a time. The assay uses an HEK293 (human embryonic kidney) cell line heterologously expressing the wild-type human cardiac sodium channel, hNav1.5, purchased from Millipore (Billerica, Mass.). No beta subunits were coexpressed with the Na channel alpha subunit. Cells are maintained with standard tissue culture procedures and stable channel expression is maintained with 400 μg/ml Geneticin in the culture medium. Cells isolated for use on PatchXpress are incubated for 5 minutes in Versene 1× and then for 2 minutes in 0.0125% Trypsin-EDTA (both at 37° C.) to ensure that 80-90% of the cells are single and not part of a cell cluster. Experiments are carried out at 24-27° C.
For both the Late INa and Peak INa assays, series resistance compensation is set to 50% and whole-cell compensation is performed automatically. Currents are low-pass filtered at 10 kHz and digitized at 31.25 kHz. Currents through open sodium channels are automatically recorded and stored in the DataXpress2 database (MDS Analytical Technologies, Sunnyvale, Calif.). Analysis is performed using DataXpress2 analysis software and data are compiled in Excel.
Compound stocks are routinely made in glass vials to 10 mM in dimethyl sulfoxide (DMSO). In some cases, when compounds are not soluble in DMSO, they are made in 100% ethanol. Stocks are sonicated as necessary. The extracellular solution for screening Late INa is composed of: 140 mM NaCl, 4 mM KCl, 1.8 mM CaCl2, 0.75 mM MgCl2, and 5 mM HEPES with pH adjusted to 7.4 using NaOH. The extracellular solution for screening Peak INa is composed of: 20 mM NaCl, 120 mM N-methyl-D glucamine, 4 mM KCl, 1.8 mM CaCl2, 0.75 mM MgCl2, and 5 mM HEPES with pH adjusted to 7.4 using HCl. The intracellular solution used to perfuse the inside of the cells for both the Late INa and Peak INa assays contains: 120 mM CsF, 20 mM CsCl, 5 mM EGTA, 5 mM HEPES and pH adjusted to 7.4 with CsOH. Compounds are diluted in extracellular solution to 10 μM in glass vials and then transferred to glass well plates before robotic addition to the cells. The 0Na extracellular solution used at the end of each experiment for the Late INa and Peak INa assays to measure baseline current contains: 140 mM N-methyl-D-glucamine; 4 mM KCl; 1.8 mM CaCl2; 0.75 mM MgCl2; 5 mM HEPES and pH was adjusted to 7.4 with HCl.
For the Late INa assay, sodium channels are activated every 10 seconds (0.1 Hz) by depolarizing the cell membrane to −20 mV for 250 milliseconds (ms) from a holding potential of −120 mV. In response to a −20 mV voltage step, typical Nav1.5 sodium currents activate rapidly to a peak negative current and then inactivate nearly completely within 3-4 ms.
All compounds are tested to determine their activity in blocking the late sodium current. Late INa current is generated by adding 10 μM Tefluthrin (pyrethroid) to the extracellular solution while recording Na currents. For some experiments, 50 nM ATX II (sea anemone toxin), another late INa activator, was used to generate the late component. Both activators generate late components that are large enough that block of the late component by compounds can be measured easily. For the purposes of the screening, late INa is defined as the mean current between 225 ms and 250 ms after stepping to −20 mV to activate Na channels. After establishing the whole cell recording configuration, late INa activators are added to each well 4 times over a 16-17 minute period so that the late component of the Na current reaches a stable value. Compounds are then added (typically at 10 μM), in the presence of late INa activator, with 3 additions over the course of 7 or 8 minutes. […]

Chain of wild-type human cardiac sodium channel, hNav1.5 (late sodium current) in HEK293 cells (Q14524 whole entry): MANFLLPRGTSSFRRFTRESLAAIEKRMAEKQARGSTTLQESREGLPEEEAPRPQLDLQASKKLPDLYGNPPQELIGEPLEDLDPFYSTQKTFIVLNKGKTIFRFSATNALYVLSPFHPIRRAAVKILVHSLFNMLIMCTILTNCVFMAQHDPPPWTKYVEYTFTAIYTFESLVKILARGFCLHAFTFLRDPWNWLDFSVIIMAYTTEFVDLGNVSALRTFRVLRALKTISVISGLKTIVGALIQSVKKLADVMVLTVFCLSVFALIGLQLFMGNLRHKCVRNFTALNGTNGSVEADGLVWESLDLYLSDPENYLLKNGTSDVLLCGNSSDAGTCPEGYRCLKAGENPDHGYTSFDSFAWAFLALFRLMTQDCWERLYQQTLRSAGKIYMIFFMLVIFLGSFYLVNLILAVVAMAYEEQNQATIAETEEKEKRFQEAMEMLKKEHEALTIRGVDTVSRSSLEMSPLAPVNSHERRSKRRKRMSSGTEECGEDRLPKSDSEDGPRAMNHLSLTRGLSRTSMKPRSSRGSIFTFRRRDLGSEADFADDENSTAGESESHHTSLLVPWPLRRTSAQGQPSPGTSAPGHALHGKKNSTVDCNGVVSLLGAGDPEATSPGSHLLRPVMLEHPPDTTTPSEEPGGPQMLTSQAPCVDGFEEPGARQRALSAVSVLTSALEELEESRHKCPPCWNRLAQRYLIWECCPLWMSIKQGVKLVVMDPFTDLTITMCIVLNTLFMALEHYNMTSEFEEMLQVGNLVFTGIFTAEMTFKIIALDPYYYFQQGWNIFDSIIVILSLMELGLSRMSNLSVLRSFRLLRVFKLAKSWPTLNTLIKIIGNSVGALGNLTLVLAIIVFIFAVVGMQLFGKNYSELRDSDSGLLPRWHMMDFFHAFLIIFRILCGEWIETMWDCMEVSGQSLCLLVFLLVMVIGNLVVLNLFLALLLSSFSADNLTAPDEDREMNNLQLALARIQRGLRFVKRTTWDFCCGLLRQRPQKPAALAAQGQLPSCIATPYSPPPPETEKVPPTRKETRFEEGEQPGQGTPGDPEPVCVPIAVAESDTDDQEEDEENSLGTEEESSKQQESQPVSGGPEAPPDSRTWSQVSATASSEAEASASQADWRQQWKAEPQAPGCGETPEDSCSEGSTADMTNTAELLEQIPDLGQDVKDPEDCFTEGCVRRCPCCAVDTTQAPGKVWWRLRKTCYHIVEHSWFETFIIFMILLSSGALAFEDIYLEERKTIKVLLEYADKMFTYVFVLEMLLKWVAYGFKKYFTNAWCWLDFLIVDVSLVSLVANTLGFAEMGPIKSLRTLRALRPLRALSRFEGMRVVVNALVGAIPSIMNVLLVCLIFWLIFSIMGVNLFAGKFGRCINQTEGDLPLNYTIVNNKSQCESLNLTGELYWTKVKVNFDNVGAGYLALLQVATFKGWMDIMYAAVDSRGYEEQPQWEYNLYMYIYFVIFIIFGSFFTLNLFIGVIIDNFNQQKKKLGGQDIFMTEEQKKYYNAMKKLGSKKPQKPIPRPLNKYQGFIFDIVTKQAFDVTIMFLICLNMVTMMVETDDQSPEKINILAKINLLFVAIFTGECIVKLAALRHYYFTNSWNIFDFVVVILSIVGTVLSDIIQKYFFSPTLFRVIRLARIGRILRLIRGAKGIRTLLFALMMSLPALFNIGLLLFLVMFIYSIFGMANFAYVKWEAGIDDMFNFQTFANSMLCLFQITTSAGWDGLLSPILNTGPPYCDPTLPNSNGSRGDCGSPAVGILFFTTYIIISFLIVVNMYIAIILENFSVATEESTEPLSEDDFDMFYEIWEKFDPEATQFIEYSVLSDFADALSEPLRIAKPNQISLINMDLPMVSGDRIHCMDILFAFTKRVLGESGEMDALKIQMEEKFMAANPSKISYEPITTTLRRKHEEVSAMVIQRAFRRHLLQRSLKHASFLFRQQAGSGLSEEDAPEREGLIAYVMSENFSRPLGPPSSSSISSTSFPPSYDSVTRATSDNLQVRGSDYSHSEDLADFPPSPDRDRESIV

Row | SMILES | inhibition at 1 µM
1 | CCOC(COc1ccc2nc(C)sc2c1)Cn1nc2ccc(-c3ccc(OC(F)(F)F)cc3)cn2c1=O (stereo not drawn) [compound 124, 2-(2-ethoxy-3-(2-methylbenzo[d]thiazol-6-yloxy)propyl)-6-(4-(trifluoromethoxy)phenyl)-[1,2,4]triazolo[4,3-a]pyridin-3(2H)-one] | 31.2%
2 | O=c1n(CCOc2cccnn2)nc2ccc(-c3ccc(OC(F)(F)F)cc3)cn12 [compound 81, 2-(2-(pyridazin-3-yloxy)ethyl)-6-(4-(trifluoromethoxy)phenyl)-[1,2,4]triazolo[4,3-a]pyridin-3(2H)-one] | 11%
3 | COc1c(-c2ccc(OC(F)(F)F)cc2)ccc2nn(Cc3nc(C)no3)c(=O)n12 [compound 30, 5-methoxy-2-((3-methyl-1,2,4-oxadiazol-5-yl)methyl)-6-(4-(trifluoromethoxy)phenyl)-[1,2,4]triazolo[4,3-a]pyridin-3(2H)-one] | 18.2%
4 | Cc1cnc(Cn2nc3ccc(-c4ccc(C(F)(F)F)cc4)cn3c2=O)o1 [compound 172, 2-((5-methyloxazol-2-yl)methyl)-6-(4-(trifluoromethyl)phenyl)-[1,2,4]triazolo[4,3-a]pyridin-3(2H)-one] | 24.8%
5 | CCOC(COc1ccc(F)cc1OC)Cn1nc2ccc(-c3ccc(OC(F)(F)F)cc3)cn2c1=O (stereo not drawn) [compound 105, 2-(2-ethoxy-3-(4-fluoro-2-methoxyphenoxy)propyl)-6-(4-(trifluoromethoxy)phenyl)-[1,2,4]triazolo[4,3-a]pyridin-3(2H)-one] | 45%
6 | COc1ccccc1OCCCn1nc2ccc(-c3ccc(OC(F)(F)F)cc3)cn2c1=O [compound 37, 2-(3-(2-methoxyphenoxy)propyl)-6-(4-(trifluoromethoxy)phenyl)-[1,2,4]triazolo[4,3-a]pyridin-3(2H)-one] | 34.5%
7 | O=c1n(CCc2ccccn2)nc2ccc(-c3ccc(OC(F)(F)F)cc3)cn12 [compound 36, 2-(2-(pyridin-2-yl)ethyl)-6-(4-(trifluoromethoxy)phenyl)-[1,2,4]triazolo[4,3-a]pyridin-3(2H)-one] | 48.4%
8 | COC(COc1ccccc1Cl)Cn1nc2ccc(-c3ccc(OC(F)(F)F)cc3)cn2c1=O (stereo not drawn) [compound 80, 2-(3-(2-chlorophenoxy)-2-methoxypropyl)-6-(4-(trifluoromethoxy)phenyl)-[1,2,4]triazolo[4,3-a]pyridin-3(2H)-one] | 33.4%
9 | CCOc1ccnc(OC2COCC2n2nc3ccc(-c4ccc(OC(F)(F)F)cc4)cn3c2=O)n1 (stereo not drawn) [compound 125, 2-(4-(4-ethoxypyrimidin-2-yloxy)tetrahydrofuran-3-yl)-6-(4-(trifluoromethoxy)phenyl)-[1,2,4]triazolo[4,3-a]pyridin-3(2H)-one] | 14.1%
10 | O=c1n(Cc2ncc(C3CC3)o2)nc2ccc(-c3ccc(OC(F)(F)F)cc3)cn12 [compound 199, 2-((5-cyclopropyloxazol-2-yl)methyl)-6-(4-(trifluoromethoxy)phenyl)-[1,2,4]triazolo[4,3-a]pyridin-3(2H)-one] | 22.5%
11 | O=c1n(CCOc2nccc(OCC3CC3)n2)nc2ccc(-c3ccc(OC(F)(F)F)cc3)cn12 [compound 179, 2-(2-(4-(cyclopropylmethoxy)pyrimidin-2-yloxy)ethyl)-6-(4-(trifluoromethoxy)phenyl)-[1,2,4]triazolo[4,3-a]pyridin-3(2H)-one] | 30.3%
12 | O=c1n(CCOc2ccc(F)cc2)nc2ccc(-c3ccc(OC(F)(F)F)cc3)cn12 [compound 55, 2-(2-(4-fluorophenoxy)ethyl)-6-(4-(trifluoromethoxy)phenyl)-[1,2,4]triazolo[4,3-a]pyridin-3(2H)-one] | 24.3%
13 | Cc1noc(Cn2nc3ccc(-c4ccc(OC(F)(F)F)c(F)c4)cn3c2=O)n1 [compound 155, 6-(3-fluoro-4-(trifluoromethoxy)phenyl)-2-((3-methyl-1,2,4-oxadiazol-5-yl)methyl)-[1,2,4]triazolo[4,3-a]pyridin-3(2H)-one] | 18.8%
14 | O=c1[nH]nc2ccc(-c3ccc(Oc4ccc(F)cc4)cc3)cn12 [compound 143, 6-(4-(4-fluorophenoxy)phenyl)-[1,2,4]triazolo[4,3-a]pyridin-3(2H)-one] | 56.6%
15 | O=c1n(CCCOc2ccccc2F)nc2ccc(-c3ccc(OC(F)(F)F)cc3)cn12 [compound 51, 2-(3-(2-fluorophenoxy)propyl)-6-(4-(trifluoromethoxy)phenyl)-[1,2,4]triazolo[4,3-a]pyridin-3(2H)-one] | 25.6%
16 | CCc1noc(Cn2nc3ccc(-c4ccc(C(F)(F)F)cc4)cn3c2=O)n1 [compound 167, 2-((3-ethyl-1,2,4-oxadiazol-5-yl)methyl)-6-(4-(trifluoromethyl)phenyl)-[1,2,4]triazolo[4,3-a]pyridin-3(2H)-one] | 26.2%
17 | O=c1n(CCc2ncccc2C2CC2)nc2ccc(-c3ccc(OC(F)(F)F)cc3)cn12 [compound 60, 2-(2-(3-cyclopropylpyridin-2-yl)ethyl)-6-(4-(trifluoromethoxy)phenyl)-[1,2,4]triazolo[4,3-a]pyridin-3(2H)-one] | 34.1%
18 | O=c1n(CCc2ccncn2)nc2ccc(-c3ccc(OC(F)(F)F)cc3)cn12 [compound 113, 2-(2-(pyrimidin-4-yl)ethyl)-6-(4-(trifluoromethoxy)phenyl)-[1,2,4]triazolo[4,3-a]pyridin-3(2H)-one] | 17.8%
19 | COCc1noc(Cn2nc3ccc(-c4ccc(C(F)(F)F)cc4)cn3c2=O)n1 [compound 168, 2-((3-(methoxymethyl)-1,2,4-oxadiazol-5-yl)methyl)-6-(4-(trifluoromethyl)phenyl)-[1,2,4]triazolo[4,3-a]pyridin-3(2H)-one] | 19.1%
20 | O=C1C(Oc2ccccc2)CCN1CCn1nc2ccc(-c3ccc(OC(F)(F)F)cc3)cn2c1=O (stereo not drawn) [compound 112, 2-(2-(2-oxo-3-phenoxypyrrolidin-1-yl)ethyl)-6-(4-(trifluoromethoxy)phenyl)-[1,2,4]triazolo[4,3-a]pyridin-3(2H)-one] | 11.1%
21 | Cc1cc(Cn2nc3ccc(-c4ccc(OC(F)(F)F)cc4)cn3c2=O)no1 [compound 5, 2-((5-methylisoxazol-3-yl)methyl)-6-(4-(trifluoromethoxy)phenyl)-[1,2,4]triazolo[4,3-a]pyridin-3(2H)-one] | 28.3%
22 | O=c1n(Cc2nc(C3CC3)co2)nc2ccc(-c3ccc(OC(F)(F)F)cc3)cn12 [compound 193, 2-((4-cyclopropyloxazol-2-yl)methyl)-6-(4-(trifluoromethoxy)phenyl)-[1,2,4]triazolo[4,3-a]pyridin-3(2H)-one] | 33.8%
23 | O=c1n(CCCOc2ccccc2C(F)(F)F)nc2ccc(-c3ccc(OC(F)(F)F)cc3)cn12 [compound 66, 6-(4-(trifluoromethoxy)phenyl)-2-(3-(2-(trifluoromethyl)phenoxy)propyl)-[1,2,4]triazolo[4,3-a]pyridin-3(2H)-one] | 14.7%

Same assay, conditions: compound at 1 μM; late INa generated with 10 μM Tefluthrin (or 50 nM ATX II); HEK293 hNav1.5

Row | SMILES | Late INa 1 μM (percent block of late INa)
24 | CCc1noc(Cn2nc3ccc(-c4ccc(OC(F)(F)F)cc4)cn3c2=O)n1 [compound 15, 2-((3-ethyl-1,2,4-oxadiazol-5-yl)methyl)-6-(4-(trifluoromethoxy)phenyl)-[1,2,4]triazolo[4,3-a]pyridin-3(2H)-one] | 13.5253%
